One data set concerns the target Cytochrome P450 3A4 (Homo sapiens, UniProt P08684). Put plainly: Inhibition of CYP3A4 (unknown origin) measured under preincubated conditions. It counts as ADME.
Data set [1] is described as follows: Toxicity in NMRI mouse xenografted with human SK-MEL-2 cells assessed as maximum tolerated dose administered orally bid for 35 days. To be noted: in vivo, po. (In xenograft studies the graft and the host belong to different species.)
A short description of data set [2]: Clearance in human liver microsomes at 1 uM measured upto 60 mins in presence of NADP by LC-MS/MS analysis. The following applies: 1 h. The class given is ADME, Microsome. A general note: Liver microsomes are a subcellular fraction often used to study metabolism.
Another data set deals with Mus musculus. The data set can be described thus: Time required for unbound plasma concentration to reach IC50 for recombinant full length human N-terminal His-tagged TBK1 in NMRI mouse at 100 mg/kg, po. The class given is ADME, organism-based. To be noted: in vivo.
Data set [3] in a line: Hepatic extraction ratio in Han Wistar rat hepatocytes at 1 uM measured upto 90 mins by LC-MS/MS analysis.
Data set [4] is described as follows: Volume of distribution at steady state in Wistar rat at 0.30 mg/kg, iv via bolus or 0.30 mg/kg, po measured upto 24 hrs by LC-MS/MS analysis. The class given is ADME, organism-based. The following applies: in vivo, 0.3 mg/kg, read-out: Vdss.
A further data set addresses Cytochrome P450 2D6 (Homo sapiens, UniProt P10635). Put plainly: Inhibition of CYP2D6 (unknown origin). The class given is ADME.
Data set [5] can be described thus: Oral bioavailability in Wistar rat at 0.30 mg/kg measured upto 24 hrs by LC-MS/MS analysis. The class given is ADME, organism-based. To be noted: in vivo, 0.3 mg/kg.
For a further data set, the target named is T1, Cytochrome P450 1A2 (Homo sapiens, UniProt P05177).
T1 sequence (P05177 whole entry): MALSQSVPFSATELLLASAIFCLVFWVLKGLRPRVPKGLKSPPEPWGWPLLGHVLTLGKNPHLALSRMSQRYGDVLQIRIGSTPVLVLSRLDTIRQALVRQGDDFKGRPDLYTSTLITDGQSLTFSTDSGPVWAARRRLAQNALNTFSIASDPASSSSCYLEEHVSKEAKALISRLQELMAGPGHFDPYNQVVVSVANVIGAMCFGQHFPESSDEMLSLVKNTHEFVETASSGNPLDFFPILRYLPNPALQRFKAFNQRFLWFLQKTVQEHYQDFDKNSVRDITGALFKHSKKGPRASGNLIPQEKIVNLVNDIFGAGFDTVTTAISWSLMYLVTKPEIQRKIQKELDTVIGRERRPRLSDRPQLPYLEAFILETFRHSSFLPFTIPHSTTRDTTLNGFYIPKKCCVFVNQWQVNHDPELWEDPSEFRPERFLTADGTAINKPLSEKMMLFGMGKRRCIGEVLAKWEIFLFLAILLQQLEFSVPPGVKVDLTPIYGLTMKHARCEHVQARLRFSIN
The data set can be described thus: Inhibition of CYP1A2 (unknown origin). The class given is ADME.

Data set [6] in a line: Clearance in Han Wistar rat hepatocytes at 1 uM measured upto 90 mins by LC-MS/MS analysis. It counts as ADME, cell-based, Hepatocyte.

pIC50: −log10 of the molar value.

Cytochrome P450 3A4, sequence (P08684 whole entry): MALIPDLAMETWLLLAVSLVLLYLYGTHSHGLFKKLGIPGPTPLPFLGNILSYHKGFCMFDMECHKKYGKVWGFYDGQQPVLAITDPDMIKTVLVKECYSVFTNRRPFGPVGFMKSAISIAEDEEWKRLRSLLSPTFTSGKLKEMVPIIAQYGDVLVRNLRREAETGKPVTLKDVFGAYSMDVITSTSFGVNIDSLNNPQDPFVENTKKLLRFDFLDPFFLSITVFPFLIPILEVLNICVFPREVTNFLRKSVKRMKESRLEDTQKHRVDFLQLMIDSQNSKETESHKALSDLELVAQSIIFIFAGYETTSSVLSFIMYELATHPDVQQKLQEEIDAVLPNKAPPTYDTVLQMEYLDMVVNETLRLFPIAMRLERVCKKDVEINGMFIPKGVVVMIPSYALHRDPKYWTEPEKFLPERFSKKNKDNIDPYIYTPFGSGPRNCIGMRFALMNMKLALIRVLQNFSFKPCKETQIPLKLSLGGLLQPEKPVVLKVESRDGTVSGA
Cytochrome P450 2D6, sequence (P10635 whole entry): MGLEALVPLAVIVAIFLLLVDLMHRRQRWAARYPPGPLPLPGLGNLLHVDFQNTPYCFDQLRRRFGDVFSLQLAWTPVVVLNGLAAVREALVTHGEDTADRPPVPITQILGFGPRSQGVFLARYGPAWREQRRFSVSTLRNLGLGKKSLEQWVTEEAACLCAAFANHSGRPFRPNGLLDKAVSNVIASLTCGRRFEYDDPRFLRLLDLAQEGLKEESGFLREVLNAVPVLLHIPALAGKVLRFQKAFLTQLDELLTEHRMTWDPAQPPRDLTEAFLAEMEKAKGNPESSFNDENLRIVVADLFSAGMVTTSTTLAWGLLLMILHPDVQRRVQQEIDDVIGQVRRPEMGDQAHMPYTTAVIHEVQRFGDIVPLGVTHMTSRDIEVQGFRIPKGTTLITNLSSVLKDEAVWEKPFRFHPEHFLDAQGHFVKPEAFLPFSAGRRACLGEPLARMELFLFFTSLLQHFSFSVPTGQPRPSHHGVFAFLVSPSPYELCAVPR

With `C[C@H](c1ccnc(Nc2nc3ccc(-c4cc(N(C)C)ncn4)cc3[nH]2)c1)N1CCN(C(=O)CC(F)(F)F)CC1` [BAY-985], the pIC50 on Cytochrome P450 3A4, against Cytochrome P450 2D6 and against Cytochrome P450 1A2 was less than 4.70 throughout. Also, the maximal tolerated dose (MTD) at 840 h in data set [1] came to 200 mg/kg. The CLH is 8.3 mL/min/kg in data set [2] and 28.3 mL/min/kg in data set [6]. Also, the Time with Mus musculus worked out at 10 h. Also, the hepatic extraction ratio at […], 1 µM in data set [3] came to 0.4. Besides, in data set [4], the Vd was 2.9 L/kg. The compound also came in with a bioavailability in data set [5] of 11%.

Broadly, the pIC50 is the negative decadic logarithm of the IC50, by convention in mol/L. The low end stands for a high IC50, the high end for a low IC50. Broadly, the MTD is the highest dose tested that stayed within the study's limit of toxicity. In general, bioavailability refers to the share of a dose that reaches the circulation, judged against a reference dose that is usually intravenous. Higher therefore signals good availability.
